Data as given in PubChem BioAssay (NCI).
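Exposure lasted 48 hours, with cells grown in 96-well plates and compounds tested at five concentrations. TGI: concentration producing complete growth inhibition.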

Key:
Test in all cases: inhibition of tumour cell growth, NCI panel, 48 h
786-0 renal = test system: 786-0 renal
A498 renal = test system: A498 renal
DU-145 prostate = test system: DU-145 prostate
HCC-2998 colon = test system: HCC-2998 colon
HCT-116 colon = test system: HCT-116 colon
HS 578T breast = test system: HS 578T breast
MCF7 breast = test system: MCF7 breast
MDA-N = test system: MDA-N
MOLT-4 leukemia = test system: MOLT-4 leukemia
SK-MEL-2 melanoma = test system: SK-MEL-2 melanoma
SK-MEL-28 melanoma = test system: SK-MEL-28 melanoma
SK-MEL-5 melanoma = test system: SK-MEL-5 melanoma
SNB-19 CNS = test system: SNB-19 CNS
SR leukemia = test system: SR leukemia
UACC-257 melanoma = test system: UACC-257 melanoma

SMILES | TGI (786-0 renal) | TGI (A498 renal) | TGI (DU-145 prostate) | TGI (HCC-2998 colon) | TGI (HCT-116 colon) | TGI (HS 578T breast) | TGI (MCF7 breast) | TGI (MDA-N) | TGI (MOLT-4 leukemia) | TGI (SK-MEL-2 melanoma) | TGI (SK-MEL-28 melanoma) | TGI (SK-MEL-5 melanoma) | TGI (SNB-19 CNS) | TGI (SR leukemia) | TGI (UACC-257 melanoma)
CCN(C(=O)N[C@H](C(=O)N[C@@H](C)C(=O)OC)C(C)C)c1ccccc1 | 92.4 µM | > 100 µM | > 100 µM | 33 µM | 68.6 µM | > 100 µM | > 100 µM | > 100 µM | > 100 µM | 78.3 µM | > 100 µM | > 100 µM | > 100 µM | > 100 µM | 41.8 µM
CC/C=C\C/C=C\C/C=C\CCCCCCCC(=O)OC(COC(=O)CCCCCCCCCCCCCCCCC)COC1OC(CO)C(O)C(O)C1O (stereo not given) | > 25 µM | > 25 µM | > 25 µM | > 25 µM | > 25 µM | 18.5 µM | > 25 µM | > 25 µM | > 25 µM | > 25 µM | > 25 µM | > 25 µM | > 25 µM | > 25 µM | > 25 µM
COC(=O)C1=C(C(=O)OC)C2(C)CCC(=O)C1O2 (stereo not given) | > 10 µM | > 10 µM | > 10 µM | > 10 µM | > 10 µM | > 10 µM | > 10 µM | > 10 µM | > 10 µM | > 10 µM | > 10 µM | > 10 µM | > 10 µM | > 10 µM | > 10 µM
CC(C)(C)c1ccc2c(c1)OCc1n[nH]c(n1)COc1cc(C(C)(C)C)ccc1OCCOCCO2 | 16 µM | 21.3 µM | 20.6 µM | 13.9 µM | 15.5 µM | 9.16 µM | 12.8 µM | 12.3 µM | 17.6 µM | 5.27 µM | 9.52 µM | 4.68 µM | 13.4 µM | 13 µM | 8 µM
Cc1ccc(C(=O)c2[nH]c(Nc3cc(C)ccn3)c(C(=S)Nc3ccccc3)c2N)cc1 | > 100 µM | > 100 µM | > 100 µM | > 100 µM | > 100 µM | > 100 µM | > 100 µM | > 100 µM | > 100 µM | > 100 µM | > 100 µM | > 100 µM | > 100 µM | > 100 µM | > 100 µM
O=S1(=O)c2ccccc2NC(=S)N1c1ccccc1 | > 100 µM | > 94.5 µM | > 100 µM | 98.4 µM | > 100 µM | > 100 µM | > 100 µM | > 80.9 µM | > 100 µM | > 100 µM | > 100 µM | > 100 µM | > 100 µM | > 100 µM | > 89.2 µM
COc1ccc(N2C(=O)C3c4[nH]c5ccccc5c4C4C(C)CCCC4C3C2=O)cc1 (stereo not given) | > 63.5 µM | > 100 µM | > 100 µM | > 100 µM | > 100 µM | 96 µM | > 100 µM | 18.3 µM | > 100 µM | > 100 µM | > 100 µM | > 100 µM | > 100 µM | > 46.8 µM | > 100 µM
O=CN(O)CC(=O)O | > 100 µM | > 100 µM | > 100 µM | > 100 µM | > 100 µM | > 100 µM | > 100 µM | > 100 µM | > 100 µM | > 100 µM | > 100 µM | > 100 µM | > 100 µM | > 100 µM | > 100 µM
O=C(/C=C1\C[C@H]2C=Nc3ccccc3C(=O)N2C1)NCCCCCNC(=O)/C=C1\C[C@H]2C=Nc3ccccc3C(=O)N2C1 | 3.42 µM | 33.5 µM | 27.4 µM | 32.7 µM | 20.1 µM | > 67.6 µM | 33.6 µM | 21.5 µM | > 100 µM | 29.2 µM | 27.4 µM | > 51 µM | 31.1 µM | 12.4 µM | 15.7 µM
CC(O)(C(=O)N(O)c1ccc(Cl)cc1)c1ccc(Cl)cc1 (stereo not given) | > 100 µM | 71.7 µM | > 100 µM | 38.7 µM | 96.1 µM | 62.4 µM | > 100 µM | > 100 µM | 42.9 µM | 50.1 µM | > 100 µM | 48.9 µM | > 100 µM | 36.1 µM | 65.1 µM
COC(=O)C1=C(C)N2[C@H](C(=O)O)CS[C@@]2(C)[C@H](C(=O)OC)[C@H]1c1cccc([N+](=O)[O-])c1 | > 100 µM | > 100 µM | > 100 µM | > 100 µM | > 100 µM | > 100 µM | > 100 µM | > 100 µM | > 100 µM | > 100 µM | > 100 µM | > 100 µM | > 100 µM | > 100 µM | > 100 µM
COC(=O)C(CCSC)NC(=O)CSc1nnc(COc2ccc(Cl)cc2)n1-c1ccccc1 (stereo not given) | 30 µM | 46.7 µM | 33 µM | 18.2 µM | 30.7 µM | 55.6 µM | 41.8 µM | 34.1 µM | 43 µM | 30.6 µM | 33.8 µM | 32.7 µM | 47.1 µM | 42.4 µM | 31.2 µM
